The values below come from publication PMC7818505 (Journal of Clinical Pharmacology, 2020).

In general, AUC(0-inf) refers to total exposure, with the tail of the curve extrapolated. As a reminder, the AUC(0-t) is exposure summed from dosing to a finite time, without extrapolation to infinity. A high value points to more exposure. Usually Cmax stands for the maximum level reached in the sampled fluid or tissue. By Tmax is commonly meant the time at which the peak concentration occurs. The half-life is how long it takes for the measured level to halve. The IC50 is the concentration at which inhibition is half-maximal. A high value points to lower potency.

Data set [1] deals with CYP3A4. Briefly: Phase 1 clinical DDI study, midazolam probe with or without relacorilant. Format: in vivo, human.
The target of data set [2] is T1, CYP2C8 (Homo sapiens, UniProt P10632).
T1 sequence (P10632 1-490): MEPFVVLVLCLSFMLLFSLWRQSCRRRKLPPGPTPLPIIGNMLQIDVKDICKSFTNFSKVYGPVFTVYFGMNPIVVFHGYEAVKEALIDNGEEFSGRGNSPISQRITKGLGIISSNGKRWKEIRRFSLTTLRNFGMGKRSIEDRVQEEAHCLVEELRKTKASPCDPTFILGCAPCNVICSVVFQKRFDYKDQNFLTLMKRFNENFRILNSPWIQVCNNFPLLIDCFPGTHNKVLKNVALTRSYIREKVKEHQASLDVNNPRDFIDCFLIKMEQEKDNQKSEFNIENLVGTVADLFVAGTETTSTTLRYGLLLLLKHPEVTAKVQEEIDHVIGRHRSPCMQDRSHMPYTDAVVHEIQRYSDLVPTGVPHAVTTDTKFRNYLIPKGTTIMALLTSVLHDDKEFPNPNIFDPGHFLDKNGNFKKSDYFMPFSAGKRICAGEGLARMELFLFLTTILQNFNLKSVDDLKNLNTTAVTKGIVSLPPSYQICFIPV
Briefly: Phase 1 clinical DDI study, pioglitazone probe with or without relacorilant. Format: in vivo.

Data set [3] has as its system CYP2B6 messenger RNA. Briefly: In vitro CYP induction assay, messenger RNA in cryopreserved human hepatocytes. Format: in vitro ADME. The following applies: 3 donors.
Data set [4] concerns CYP1A2 messenger RNA. The data set is described as above. Format: in vitro ADME. The following applies: 3 donors.
Data set [5] relates to progesterone receptor. The following applies: background statement; cited from earlier work.
For data set [6], the target named is CYP3A4 (Homo sapiens, UniProt P08684). Briefly: biochemical.
CYP3A4 (Homo sapiens, UniProt P08684), sequence (P08684 whole entry): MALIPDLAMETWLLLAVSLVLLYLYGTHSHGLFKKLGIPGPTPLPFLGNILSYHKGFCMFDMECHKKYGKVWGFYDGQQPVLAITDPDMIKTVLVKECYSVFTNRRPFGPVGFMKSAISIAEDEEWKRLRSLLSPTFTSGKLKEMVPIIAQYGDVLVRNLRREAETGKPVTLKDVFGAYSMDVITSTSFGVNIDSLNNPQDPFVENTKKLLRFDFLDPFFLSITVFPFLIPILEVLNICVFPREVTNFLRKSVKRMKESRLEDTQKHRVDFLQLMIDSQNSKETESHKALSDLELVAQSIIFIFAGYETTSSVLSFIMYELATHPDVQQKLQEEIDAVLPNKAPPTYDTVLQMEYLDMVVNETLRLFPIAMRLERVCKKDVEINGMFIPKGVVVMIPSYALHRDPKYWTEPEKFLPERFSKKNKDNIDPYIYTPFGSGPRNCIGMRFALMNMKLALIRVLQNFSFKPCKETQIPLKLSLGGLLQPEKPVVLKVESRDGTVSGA
Data set [7] concerns the target CYP2C9 (Homo sapiens, UniProt P11712). The following applies: background statement; cited from earlier work.
[8] abbreviates: both, human, plasma, po, 2.5 mg, probe midazolam.
[9] abbreviates: both, human, plasma, po, 15 mg, probe pioglitazone.
[10] abbreviates: pioglitazone + relacorilant (day 15) compared to pioglitazone alone (day 2).
The mark [11] stands for this setting: pioglitazone + relacorilant (day 15) vs pioglitazone alone (day 2).

CYP2C9, sequence (P11712 whole entry): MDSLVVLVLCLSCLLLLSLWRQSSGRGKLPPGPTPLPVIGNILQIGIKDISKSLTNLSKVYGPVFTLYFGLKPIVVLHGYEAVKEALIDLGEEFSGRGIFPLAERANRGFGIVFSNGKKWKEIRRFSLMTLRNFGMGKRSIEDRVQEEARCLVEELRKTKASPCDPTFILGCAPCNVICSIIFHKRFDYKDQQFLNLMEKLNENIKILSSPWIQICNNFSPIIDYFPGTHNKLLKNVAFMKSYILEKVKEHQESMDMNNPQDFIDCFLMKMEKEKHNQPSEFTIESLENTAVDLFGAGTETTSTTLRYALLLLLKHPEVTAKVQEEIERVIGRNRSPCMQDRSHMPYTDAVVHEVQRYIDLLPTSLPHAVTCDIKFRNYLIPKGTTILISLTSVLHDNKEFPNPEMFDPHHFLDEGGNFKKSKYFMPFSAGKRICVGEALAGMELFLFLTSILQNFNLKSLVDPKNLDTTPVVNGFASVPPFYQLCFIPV

Take `Cc1ncc2n1-c1ccc(Cl)cc1C(c1ccccc1F)=NC2` [Midazolam, midazolam]: the AUC(0-inf) in data set [1] (both, human, plasma, po, 2.5 mg) amounted to 36.4 ng·h/mL. In data set [1] (setting [8]), this molecule came in with an AUC(0-t) of 34.2 ng·h/mL and a Cmax of 12.7 ng/mL.

`CCc1ccc(CCOc2ccc(CC3SC(=O)NC3=O)cc2)nc1` (centres unmarked) [Pioglitazone, pioglitazone]: in data set [2] (both, human, plasma, po, 15 mg), the AUC(0-inf) was 5650 ng·h/mL. In data set [2] (setting [9]), the AUC(0-t) is 5530 ng·h/mL, the Cmax is 525 ng/mL, the time to peak (Tmax) is 2 h and the half-life is 10.4 h. For the same molecule, in data set [2] (setting [10]), the “GLSM AUCinf lower with relacorilant than alone, pioglitazone” value is recorded as around 25%; the “GLSM AUClast lower with relacorilant than alone, pioglitazone” value was around 25%; the “GLSM Cmax lower with relacorilant than alone, pioglitazone” value is recorded as “approximately 22%”. Moreover, in data set [2] (setting [11]), the “AUCinf GLSM Ratio (90%CI), pioglitazone” value was 0.748 (0.681‐0.822); the “AUClast GLSM Ratio (90%CI), pioglitazone” value is 0.747 (0.681‐0.820); the “Cmax GLSM Ratio (90%CI), pioglitazone” value is 0.778 (0.697‐0.870).

Consider `Cn1cc(S(=O)(=O)N2CCC3=Cc4c(cnn4-c4ccc(F)cc4)C[C@]3(C(=O)c3cc(C(F)(F)F)ccn3)C2)cn1` [Relacorilant, (R)‐(1‐(4‐fluorophenyl)‐6‐((1‐methyl‐1H‐pyrazol‐4‐yl)sulfonyl)‐4,4a,5,6,7,8‐hexahydro‐1H‐pyrazolo[3,4‐g]isoquinolin‐4a‐yl)(4‐(trifluoromethyl)pyridin‐2‐yl)methanone], for which the “induction of CYP2B6 (in words)” value in data set [3] is given as “No induction of CYP2B6 was observed in any donor”. For the same molecule, in data set [4], the “induction of CYP1A2 (in words)” value was “dose‐responsive induction of CYP1A2 was observed in all donors”. Besides, the “affinity for the progesterone receptor (in words)” value in data set [5] is “no affinity for the progesterone receptor”. In data set [1] (healthy subjects, relacorilant 350 mg once daily, midazolam probe), the “CYP3A inhibition in vivo (in words)” value is “strong CYP3A inhibitor”. In data set [6], this molecule came in with a half-inhibitory concentration (IC50) of 1320 nM.

Regarding `CC#C[C@]1(O)CC[C@H]2[C@@H]3CCC4=CC(=O)CCC4=C3[C@@H](c3ccc(N(C)C)cc3)C[C@@]21C` [mifepristone], in data set [7], the “CYP2C9 inhibition in vivo (in words)” value was “inhibits both CYP2C8 and CYP2C9 in vivo”.
